Laboratory results: US20260232661A1, “Compositions and Uses Thereof” (Purposeful IKE, priority 2020, published 2026)

Assays:
Format in all cases: in vivo
Fmr1 KO mice [1] = assay: Three chamber partition test (sociability); design: Mean Diff., N_WT-V vs. treated KO (Sociability) / Mean 2, treated KO group (Sociability) / Mean Diff., F_KO-V vs. F_KO treated (Sociability) / Mean Diff., F_KO-V vs. N_KO treated (Sociability) / Mean 2, F_KO treated group (Sociability) / Mean 2, N KO treated group (Sociability) / Mean 2, N_KO treated group (Sociability) / Data table Sociability, F_KO-Sumatriptan / Data table Sociability, N_KO-Sumatriptan / Data table Sociability, F_KO-Oxitriptan: unit not given here
Method: (§1) Fmr1 KO mice backcrossed to the FVB strain and WT littermates were used during experiments. TransnetXY Automated Genotyping (www.transnetyx.com/). TRANSNETYX, INC., 8110 Cordova Rd. Suite 119, Cordova, TN 38016, USA was used for genotyping. The animals were pretreated for 14 days. The active ingredients of Sumatriptan and Ergoloid were in a water carrier, whereas oxitriptan was in a methanol carrier.
(§2) The mice were housed in plastic cages (35×30×12 cm), 5 in each. The room temperature (21±2° C.), relative humidity (55±5%), a 12-h light-dark cycle (lights on 7 a.m.-7 p.m.) and air exchange (16 times per h) were automatically controlled. The animals had free access to commercial food pellets and water. Testing was conducted during the light phase. Ten mice per treatment group were used for the AGS experiments. Experiments were conducted in line with the requirements of the UK Animals (Scientific Procedures) Act, 1986.
(§3) All experiments were conducted with the experimenter blind to genotype and drug treatment. Separate investigators prepared and coded dosing solutions, allocated the mice to the study treatment groups, dosed the animals, and collected the Audiogenic Seizure data.
(§4) Behavior testing was conducted at 2 weeks. The behavioral tests were as follows: 1. Hyperactivity: Open field; 2. Stereotypy: Self-grooming; 3. Sociability: Three chamber partition test; 4. Memory and Learning: Novel Object Recognition; 5. Anxiety: hyponeophagia; and 6. Test of daily living: marble burying
For sociability a three chamber partition test was utilized. The three-chamber paradigm test known as Crawley's sociability and preference for social novelty protocol has previously been successfully employed to study social affiliation and social memory in several inbred and mutant mouse lines. The main principle of the test was based on the free choice by a subject mouse to spend time in any of three box's compartments during two experimental sessions, including indirect contact with one or two mice with which it was unfamiliar (Kaidanovich-Beilin 2011).
(§5) The treatment of the mice with OX (Oxitriptan), SU (Sumatriptan), ER (Ergoloid mesylates, also referred to as ergoloid herein) were according to the matrix shown below in Table 1. […]

Fmr1 KO mice [2] = assay: Hyponeophagia test (anxiety)
Method: as §1, §2, §3, §4
For anxiety a hyponeophagia test was conducted. Mice and rats cannot vomit, due to the tightness of the cardiac sphincter of the stomach, so to overcome the problem of potential food toxicity they have evolved a strategy of first ingesting only very small amounts of novel substances. The amounts ingested then gradually increase until the animal has determined whether the substance is safe and nutritious. So the old rat-catchers would first put a palatable substance such as oatmeal, which was to be the vehicle for the toxin, in the infested area (Deacon 2011).
(§6) The treatment of the mice with OX (Oxitriptan), SU (Sumatriptan), ER (Ergoloid mesylates, also referred to as ergoloid herein) were according to the matrix shown below in Table 1.
(§7) The experimental procedures described above for Example 1 were used in the following tests, as well as the addition of two further behaviour tests as described below. An SSRI (selective serotonin re-uptake inhibitor) was co-dosed with the ergoloid mesylates and oxitriptan to assess the effect of the ergoloid mesylates and oxitriptan treatment on a subject already receiving SSRI treatment.
(§8) The treatment of the mice with OX (Oxitriptan), ER (Ergoloid mesylates) and FL (fluvoxamine) were according to the matrix shown below in Table 21. The triple combination involved dosing of 2 mg/kg ergoloid mesylates, 40 mg/kg oxitriptan and 40 mg/kg of fluvoxamine (the SSRI).

Fmr1 KO mice [3] = assay: Test of daily living (nesting; marble burying)
Method: as §1, §2, §3, §4
For test of daily living, nesting was assessed as nest building is an innate behavior in rodents, even when raised in laboratory settings. Synthetic and/or natural materials (such as twine, tissue, cotton, paper, and hay) are provided as a gauge of their overall well-being and as an ancillary assessment to predict the possible decline in cognition. Typically, changes in nesting behaviors, such as failure to create a nest, indicate a change in health or welfare. In addition, nesting behavior is sensitive to many environmental and physiological challenges, as well as many genetic mutations underlying pathological disease states (Gaskill 2013).
as §6, §7, §8

Fmr1 KO mice [4] = assay: Open field test (hyperactivity)
Method: as §1, §2, §3, §4
For hyperactivity, the open field test (OFT) is a common measure of exploratory behavior and general activity in both mice and rats, where both the quality and quantity of the activity can be measured. Principally, the open field (OF) is an enclosure, generally square, rectangular, or circular in shape with surrounding walls that prevent escape. The OFT is also commonly used as a mechanism to assess the sedative, toxic, or stimulant effects of compounds (Gould 2009).
as §6, §7, §8

Fmr1 KO mice [5] = assay: Self-grooming (stereotypy); conditions: Dunnett's test, alpha 0.05; doses as E31
Method: as §1, §2, §3
Behavior testing was conducted at 2 weeks. The behavioral tests were as follows: 1. Hyperactivity: Open field; 2. Stereotypy: Self-grooming; 3. […]
For stereotypy, self-grooming was assessed. […]

Fmr1 KO mice [6] = assay: Novel Object Recognition (memory and learning); design: Mean Diff., N_WT-V vs. treated KO (NOR) / Mean 2, treated KO group (NOR) / Mean Diff., F_KO-V vs. F_KO treated (NOR) / Mean Diff., F_KO-V vs. N_KO treated (NOR) / Mean 2, F_KO treated group (NOR) / Mean 2, N_KO treated group (NOR): unit not given here
Method: as §1, §2, §3, §4
For memory and learning, a novel object recognition (NOR) task was used to evaluate the rodents' ability to recognize a novel object in the environment. […] The task procedure consists of three phases: habituation, familiarization, and test phase (Antunes 2012).
as §5

[7] = KO mice, mg/kg: Sumatriptan 20, Oxitriptan 40, Ergoloid 4, Ergoloid 2+Sumatriptan 10, Ergoloid 2+Oxitriptan 40

Structure (SMILES): N[C@@H](Cc1c[nH]c2ccc(O)cc12)C(=O)O [Oxitriptan]
- Significant? F_KO-V vs. F_KO treated (Sociability) (Fmr1 KO mice [1]; Dunnett's test, alpha 0.05, F_ groups, doses as E56): Yes
- Significant? F_KO-V vs. N_KO treated (Sociability) (Fmr1 KO mice [1]; Dunnett's test, alpha 0.05, N_ groups, doses as E61): Yes
- Significant? N_WT-V vs. treated KO (Sociability) (Fmr1 KO mice [1]; Dunnett's test, alpha 0.05, groups and doses as E21): No
- Summary, N_WT-V vs. treated KO (Sociability) (Fmr1 KO mice [1]; Dunnett's test, groups and doses as E21): ns
- Data table Sociability, F_KO-Oxitriptan (Fmr1 KO mice [1]; F_, KO mice, Oxitriptan 40 mg/kg, individual animals): 51
- Mean Diff., F_KO-V vs. N_KO treated (Sociability) (Fmr1 KO mice [1]; N_ groups, mg/kg: Sumatriptan 20, Oxitriptan 40, Ergoloid 4, Ergoloid 2+Oxitriptan 40): −17.20
- Mean Diff., N_WT-V vs. treated KO (Sociability) (Fmr1 KO mice [1]; N_ groups, mg/kg: Sumatriptan 20, Oxitriptan 40, Ergoloid 4, F_KO Ergoloid 2+Sumatriptan 10, N_KO Ergoloid 2+Oxitriptan 40): 0.3000
- Mean 2, N_KO treated group (Sociability) (Fmr1 KO mice [1]; comparison against F_KO-V, doses as E61): 95.80
- Mean 2, treated KO group (Sociability) (Fmr1 KO mice [1]; comparison against N_WT-V, groups and doses as E21): 98.80
- Significant? WT-V vs. treated KO (Hyponeophagia) (Fmr1 KO mice [2]; Dunnett's test, alpha 0.05, doses as E6): No
- Significant? KO-V vs. treated KO (Hyponeophagia) (Fmr1 KO mice [2]; Dunnett's test, alpha 0.05, doses as E36): Yes
- Summary, WT-V vs. treated KO (Hyponeophagia) (Fmr1 KO mice [2]; Dunnett's test, doses as E6): ns
- Mean Diff., WT-V vs. treated KO (Hyponeophagia) (Fmr1 KO mice [2]; [7]): −0.7000
- Significant? WT-V vs. treated KO (Test of daily living) (Fmr1 KO mice [3]; Dunnett's test, alpha 0.05, doses as E11): No
- Significant? KO-V vs. treated KO (Test of daily living) (Fmr1 KO mice [3]; Dunnett's test, alpha 0.05, doses as E41): Yes
- Summary, WT-V vs. treated KO (Test of daily living) (Fmr1 KO mice [3]; Dunnett's test, doses as E11): ns
- Mean Diff., KO-V vs. treated KO (Test of daily living) (Fmr1 KO mice [3]; KO mice, mg/kg: Sumatriptan 20, Oxitriptan 40, Ergoloid 4, Ergoloid 2+Oxitriptan 40): −3.700
- Mean Diff., WT-V vs. treated KO (Test of daily living) (Fmr1 KO mice [3]; [7]): −0.1000
- Mean 2, treated KO group (Test of daily living) (Fmr1 KO mice [3]; comparison against KO-V, doses as E41): 4.900
- Mean 2, treated KO group (Test of daily living) (Fmr1 KO mice [3]; comparison against WT-V, doses as E11): 4.900
- Below threshold? WT-V vs. treated KO (Open Field) (Fmr1 KO mice [4]; Dunnett's test, alpha 0.05, doses as E1): Yes
- Significant? KO-V vs. treated KO (Open Field) (Fmr1 KO mice [4]; Dunnett's test, alpha 0.05, doses as E26): Yes
- Mean Diff., WT-V vs. treated KO (Open Field) (Fmr1 KO mice [4]; KO mice, mg/kg: Sumatriptan 20, 5-HTP 80, EM 4, Ergoloid 2+Sumatriptan 10, Ergoloid 2+Oxitriptan 40): −512.4
- Significant? KO-V vs. treated KO (Stereotypy) (Fmr1 KO mice [5]): Yes
- Significant? F_KO-V vs. F_KO treated (NOR) (Fmr1 KO mice [6]; Dunnett's test, alpha 0.05, F_ groups, doses as E46): No
- Significant? F_KO-V vs. N_KO treated (NOR) (Fmr1 KO mice [6]; Dunnett's test, alpha 0.05, N_ groups, doses as E51): Yes
- Significant? N_WT-V vs. treated KO (NOR) (Fmr1 KO mice [6]; Dunnett's test, alpha 0.05, groups and doses as E16): Yes
- Summary, F_KO-V vs. F_KO treated (NOR) (Fmr1 KO mice [6]; Dunnett's test, F_ groups, doses as E46): ns
- Mean 2, F_KO treated group (NOR) (Fmr1 KO mice [6]; comparison against F_KO-V, doses as E46): 5.636
